Assays:
[1] = test system: Tyrosine-protein kinase ABL1 (Homo sapiens), P00519 [T315I]; conditions: Compound concentration 1000.0 nM
[2] = target: T1, Activin receptor type-1 (Homo sapiens) (UniProt Q04771); conditions: Compound concentration 1000.0 nM
T1 sequence (whole entry): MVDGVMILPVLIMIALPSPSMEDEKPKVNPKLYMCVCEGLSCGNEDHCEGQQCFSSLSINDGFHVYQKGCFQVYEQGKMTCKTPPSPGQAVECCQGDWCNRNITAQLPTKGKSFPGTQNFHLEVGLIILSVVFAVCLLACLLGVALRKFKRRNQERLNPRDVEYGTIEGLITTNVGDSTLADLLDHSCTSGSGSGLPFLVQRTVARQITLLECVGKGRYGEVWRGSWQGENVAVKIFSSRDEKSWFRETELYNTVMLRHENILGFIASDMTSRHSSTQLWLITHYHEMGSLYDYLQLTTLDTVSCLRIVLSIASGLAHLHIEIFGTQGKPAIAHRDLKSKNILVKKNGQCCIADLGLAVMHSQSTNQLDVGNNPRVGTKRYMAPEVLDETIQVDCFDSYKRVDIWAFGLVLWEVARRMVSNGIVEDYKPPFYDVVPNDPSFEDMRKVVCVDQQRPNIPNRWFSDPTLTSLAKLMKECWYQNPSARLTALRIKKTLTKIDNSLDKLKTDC

[3] = target: Mitogen-activated protein kinase kinase kinase 12 (Homo sapiens) (UniProt Q12852); conditions: Compound concentration 1000.0 nM
[4] = test system: Epidermal growth factor receptor (Homo sapiens), P00533 [UNDEFINED MUTATION]; conditions: Compound concentration 1000.0 nM
Epidermal growth factor receptor (Homo sapiens), P00533 [UNDEFINED MUTATION], sequence (P00533 whole entry, looked up, stated change not applied): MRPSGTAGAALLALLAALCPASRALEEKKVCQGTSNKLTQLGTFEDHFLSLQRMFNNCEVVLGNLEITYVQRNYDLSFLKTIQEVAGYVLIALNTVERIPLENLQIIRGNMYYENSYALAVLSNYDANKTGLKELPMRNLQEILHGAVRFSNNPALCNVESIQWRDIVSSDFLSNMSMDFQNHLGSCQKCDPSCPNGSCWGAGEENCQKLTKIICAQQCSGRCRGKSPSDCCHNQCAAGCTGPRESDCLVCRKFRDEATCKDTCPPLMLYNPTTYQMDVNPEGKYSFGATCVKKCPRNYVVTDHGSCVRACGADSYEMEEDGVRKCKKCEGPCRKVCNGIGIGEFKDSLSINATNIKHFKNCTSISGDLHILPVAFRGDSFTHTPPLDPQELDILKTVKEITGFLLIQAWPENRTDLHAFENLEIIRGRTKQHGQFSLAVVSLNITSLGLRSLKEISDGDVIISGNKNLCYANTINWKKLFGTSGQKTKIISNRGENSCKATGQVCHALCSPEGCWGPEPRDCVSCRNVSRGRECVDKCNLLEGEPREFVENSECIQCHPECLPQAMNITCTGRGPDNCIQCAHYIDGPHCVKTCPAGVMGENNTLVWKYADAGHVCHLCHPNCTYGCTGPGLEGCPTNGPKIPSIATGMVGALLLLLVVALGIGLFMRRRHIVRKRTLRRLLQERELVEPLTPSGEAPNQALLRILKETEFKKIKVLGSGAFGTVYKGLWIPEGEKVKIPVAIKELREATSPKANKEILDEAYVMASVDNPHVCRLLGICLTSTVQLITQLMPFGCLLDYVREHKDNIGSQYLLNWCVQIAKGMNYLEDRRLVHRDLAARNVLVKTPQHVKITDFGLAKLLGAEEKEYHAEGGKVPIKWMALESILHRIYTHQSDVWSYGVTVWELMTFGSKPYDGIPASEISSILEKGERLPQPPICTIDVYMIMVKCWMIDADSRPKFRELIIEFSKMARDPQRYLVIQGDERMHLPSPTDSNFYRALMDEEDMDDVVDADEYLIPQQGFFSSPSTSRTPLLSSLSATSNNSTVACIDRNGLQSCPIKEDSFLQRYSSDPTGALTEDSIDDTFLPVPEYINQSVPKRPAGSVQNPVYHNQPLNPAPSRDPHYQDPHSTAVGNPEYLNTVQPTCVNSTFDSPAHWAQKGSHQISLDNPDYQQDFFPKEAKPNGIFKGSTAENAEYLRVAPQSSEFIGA

[5] = test system: Receptor-type tyrosine-protein kinase FLT3 (Homo sapiens), P36888 [D835V]; conditions: Compound concentration 1000.0 nM
[6] = target: Maternal embryonic leucine zipper kinase (Homo sapiens) (UniProt Q14680); conditions: Compound concentration 1000.0 nM
Maternal embryonic leucine zipper kinase (Homo sapiens), sequence (Q14680 whole entry, looked up): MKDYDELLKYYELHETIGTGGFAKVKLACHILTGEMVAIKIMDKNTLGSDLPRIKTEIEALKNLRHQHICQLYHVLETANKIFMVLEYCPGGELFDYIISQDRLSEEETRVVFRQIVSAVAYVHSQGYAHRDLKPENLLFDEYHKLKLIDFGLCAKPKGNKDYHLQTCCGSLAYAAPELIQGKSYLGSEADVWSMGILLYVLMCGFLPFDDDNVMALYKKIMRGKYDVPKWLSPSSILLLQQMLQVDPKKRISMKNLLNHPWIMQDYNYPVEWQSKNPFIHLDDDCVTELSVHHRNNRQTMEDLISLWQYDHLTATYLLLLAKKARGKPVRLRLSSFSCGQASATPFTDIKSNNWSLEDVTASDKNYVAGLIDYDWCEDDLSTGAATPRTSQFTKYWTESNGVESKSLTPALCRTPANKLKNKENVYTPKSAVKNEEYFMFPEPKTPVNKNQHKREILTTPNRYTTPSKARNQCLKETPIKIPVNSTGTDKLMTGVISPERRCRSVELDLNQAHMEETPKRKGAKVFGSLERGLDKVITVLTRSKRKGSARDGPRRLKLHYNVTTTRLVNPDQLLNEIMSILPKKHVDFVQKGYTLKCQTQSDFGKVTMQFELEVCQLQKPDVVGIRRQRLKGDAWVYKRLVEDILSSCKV

[7] = target: Macrophage-stimulating protein receptor (Homo sapiens) (UniProt Q04912); conditions: Compound concentration 1000.0 nM
[8] = target: T2, Serine/threonine-protein kinase Nek1 (Homo sapiens) (UniProt Q96PY6); conditions: Compound concentration 1000.0 nM
T2 sequence (whole entry): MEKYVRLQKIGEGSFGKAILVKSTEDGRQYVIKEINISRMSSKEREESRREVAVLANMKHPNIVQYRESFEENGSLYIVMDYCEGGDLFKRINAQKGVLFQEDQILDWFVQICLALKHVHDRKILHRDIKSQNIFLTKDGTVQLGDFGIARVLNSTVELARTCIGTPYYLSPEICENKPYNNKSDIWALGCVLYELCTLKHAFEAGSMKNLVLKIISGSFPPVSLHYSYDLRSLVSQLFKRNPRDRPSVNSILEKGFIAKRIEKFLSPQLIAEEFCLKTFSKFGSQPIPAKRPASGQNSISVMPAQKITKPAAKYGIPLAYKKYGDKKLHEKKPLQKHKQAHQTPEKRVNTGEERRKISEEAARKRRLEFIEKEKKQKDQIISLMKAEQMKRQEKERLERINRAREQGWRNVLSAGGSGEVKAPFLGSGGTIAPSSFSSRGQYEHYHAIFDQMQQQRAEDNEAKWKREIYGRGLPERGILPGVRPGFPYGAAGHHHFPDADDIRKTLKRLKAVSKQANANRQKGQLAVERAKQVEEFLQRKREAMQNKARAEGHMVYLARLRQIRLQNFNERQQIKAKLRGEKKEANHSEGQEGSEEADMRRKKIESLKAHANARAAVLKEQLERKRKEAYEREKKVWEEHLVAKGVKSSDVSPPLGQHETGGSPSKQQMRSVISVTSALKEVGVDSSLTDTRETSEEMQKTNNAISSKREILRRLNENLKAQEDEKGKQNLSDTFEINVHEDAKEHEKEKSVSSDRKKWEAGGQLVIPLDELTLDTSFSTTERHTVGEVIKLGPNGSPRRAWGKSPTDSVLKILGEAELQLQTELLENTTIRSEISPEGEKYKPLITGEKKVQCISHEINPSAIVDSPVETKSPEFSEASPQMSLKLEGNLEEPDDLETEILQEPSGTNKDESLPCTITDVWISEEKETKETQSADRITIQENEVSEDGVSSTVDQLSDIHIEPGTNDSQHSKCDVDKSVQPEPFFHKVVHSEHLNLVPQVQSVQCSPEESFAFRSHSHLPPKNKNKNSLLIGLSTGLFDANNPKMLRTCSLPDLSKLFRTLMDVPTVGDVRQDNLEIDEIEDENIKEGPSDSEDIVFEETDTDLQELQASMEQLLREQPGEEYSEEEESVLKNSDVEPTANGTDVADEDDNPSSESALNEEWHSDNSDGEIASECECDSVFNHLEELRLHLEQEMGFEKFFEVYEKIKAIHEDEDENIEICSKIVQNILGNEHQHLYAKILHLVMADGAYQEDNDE

[9] = target: Serine/threonine-protein kinase Nek4 (Homo sapiens) (UniProt P51957); conditions: Compound concentration 1000.0 nM
Serine/threonine-protein kinase Nek4 (Homo sapiens), sequence (P51957 whole entry, looked up, canonical isoform): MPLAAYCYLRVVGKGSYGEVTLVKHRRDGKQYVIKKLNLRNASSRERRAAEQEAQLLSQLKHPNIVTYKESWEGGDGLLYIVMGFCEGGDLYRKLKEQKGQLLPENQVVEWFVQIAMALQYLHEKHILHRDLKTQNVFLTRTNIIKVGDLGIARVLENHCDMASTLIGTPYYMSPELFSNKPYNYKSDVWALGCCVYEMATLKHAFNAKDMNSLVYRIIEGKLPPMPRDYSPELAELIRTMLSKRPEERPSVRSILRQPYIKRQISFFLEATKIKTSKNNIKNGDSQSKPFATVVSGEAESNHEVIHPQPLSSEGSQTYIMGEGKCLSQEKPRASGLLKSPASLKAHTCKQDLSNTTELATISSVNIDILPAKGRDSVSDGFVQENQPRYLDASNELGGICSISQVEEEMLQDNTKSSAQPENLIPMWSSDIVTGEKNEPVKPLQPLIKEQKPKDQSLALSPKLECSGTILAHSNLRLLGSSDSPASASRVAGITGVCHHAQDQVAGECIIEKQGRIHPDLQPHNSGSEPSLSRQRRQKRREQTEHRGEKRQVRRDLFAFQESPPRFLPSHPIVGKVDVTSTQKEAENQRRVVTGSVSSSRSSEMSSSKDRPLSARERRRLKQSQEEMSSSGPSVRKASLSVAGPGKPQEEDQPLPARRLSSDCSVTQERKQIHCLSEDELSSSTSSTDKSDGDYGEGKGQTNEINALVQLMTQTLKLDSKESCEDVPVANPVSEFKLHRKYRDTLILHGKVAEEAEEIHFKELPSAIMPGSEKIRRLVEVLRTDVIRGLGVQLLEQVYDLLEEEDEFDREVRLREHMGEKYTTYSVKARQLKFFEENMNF

[10] = target: Phosphatidylinositol 4,5-bisphosphate 3-kinase catalytic subunit gamma isoform (Homo sapiens) (UniProt P48736); conditions: Compound concentration 1000.0 nM
[11] = target: Ribosomal protein S6 kinase alpha-4 (Homo sapiens) (UniProt O75676); conditions: Compound concentration 1000.0 nM
Ribosomal protein S6 kinase alpha-4 (Homo sapiens), sequence (O75676 whole entry, looked up): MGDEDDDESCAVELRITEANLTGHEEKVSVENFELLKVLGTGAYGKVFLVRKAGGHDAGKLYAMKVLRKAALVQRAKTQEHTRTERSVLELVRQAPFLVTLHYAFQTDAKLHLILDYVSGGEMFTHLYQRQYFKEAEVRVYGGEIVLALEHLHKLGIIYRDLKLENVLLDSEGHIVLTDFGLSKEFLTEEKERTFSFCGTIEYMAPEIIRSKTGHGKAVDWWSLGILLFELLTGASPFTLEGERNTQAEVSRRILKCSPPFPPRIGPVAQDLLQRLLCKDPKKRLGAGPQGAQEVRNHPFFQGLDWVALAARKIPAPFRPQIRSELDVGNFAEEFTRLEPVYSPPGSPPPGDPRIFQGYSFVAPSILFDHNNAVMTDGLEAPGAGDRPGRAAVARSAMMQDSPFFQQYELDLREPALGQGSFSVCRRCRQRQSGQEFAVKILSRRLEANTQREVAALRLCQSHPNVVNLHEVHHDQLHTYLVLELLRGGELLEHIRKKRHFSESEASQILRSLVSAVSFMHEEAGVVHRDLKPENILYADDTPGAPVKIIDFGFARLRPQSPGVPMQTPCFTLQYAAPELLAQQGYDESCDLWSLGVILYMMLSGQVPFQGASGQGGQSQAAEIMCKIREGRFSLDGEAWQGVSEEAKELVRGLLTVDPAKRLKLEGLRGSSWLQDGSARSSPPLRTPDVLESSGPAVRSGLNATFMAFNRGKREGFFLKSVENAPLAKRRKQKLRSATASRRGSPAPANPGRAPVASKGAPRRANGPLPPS

[12] = target: Ribosomal protein S6 kinase alpha-2 (Homo sapiens) (UniProt Q15349); conditions: Compound concentration 1000.0 nM
Ribosomal protein S6 kinase alpha-2 (Homo sapiens), sequence (Q15349 whole entry): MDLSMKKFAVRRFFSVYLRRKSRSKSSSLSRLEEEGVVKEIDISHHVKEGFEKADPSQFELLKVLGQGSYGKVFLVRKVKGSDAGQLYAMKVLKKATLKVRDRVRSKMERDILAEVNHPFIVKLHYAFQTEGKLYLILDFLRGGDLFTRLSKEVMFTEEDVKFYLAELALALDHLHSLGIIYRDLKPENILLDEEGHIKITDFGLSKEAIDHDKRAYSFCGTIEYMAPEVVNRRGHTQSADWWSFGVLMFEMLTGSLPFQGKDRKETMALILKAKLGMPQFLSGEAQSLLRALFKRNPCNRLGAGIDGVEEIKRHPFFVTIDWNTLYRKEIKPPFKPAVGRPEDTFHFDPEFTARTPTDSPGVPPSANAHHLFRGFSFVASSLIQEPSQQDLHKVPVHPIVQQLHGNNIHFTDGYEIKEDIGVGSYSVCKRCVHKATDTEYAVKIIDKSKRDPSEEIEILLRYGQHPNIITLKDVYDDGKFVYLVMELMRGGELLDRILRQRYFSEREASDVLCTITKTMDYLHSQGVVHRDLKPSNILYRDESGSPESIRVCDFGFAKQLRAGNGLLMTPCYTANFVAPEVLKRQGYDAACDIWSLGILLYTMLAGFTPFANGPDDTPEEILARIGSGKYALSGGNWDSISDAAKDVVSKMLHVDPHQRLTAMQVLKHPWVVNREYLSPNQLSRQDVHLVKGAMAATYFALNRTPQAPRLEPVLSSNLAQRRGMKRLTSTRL

[13] = target: Serine/threonine-protein kinase 25 (Homo sapiens) (UniProt O00506); conditions: Compound concentration 1000.0 nM
Serine/threonine-protein kinase 25 (Homo sapiens), sequence (O00506 whole entry, looked up): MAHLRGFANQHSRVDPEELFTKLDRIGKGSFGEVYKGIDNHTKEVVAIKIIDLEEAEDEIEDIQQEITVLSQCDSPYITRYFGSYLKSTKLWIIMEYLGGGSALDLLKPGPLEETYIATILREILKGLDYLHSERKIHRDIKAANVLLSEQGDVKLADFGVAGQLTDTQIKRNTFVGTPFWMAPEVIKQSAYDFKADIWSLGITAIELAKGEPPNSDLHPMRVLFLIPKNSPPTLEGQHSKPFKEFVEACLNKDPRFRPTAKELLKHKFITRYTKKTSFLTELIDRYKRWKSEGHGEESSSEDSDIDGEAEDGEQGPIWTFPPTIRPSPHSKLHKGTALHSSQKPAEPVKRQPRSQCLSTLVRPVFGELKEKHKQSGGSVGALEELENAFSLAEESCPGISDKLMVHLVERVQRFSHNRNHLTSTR

[14] = target: Beta-1 adrenergic receptor (Homo sapiens) (UniProt P08588); conditions: Compound concentration 10.0 uM

Cc1nc(C2CCN(C(=O)c3ccc(OC(F)(F)F)cc3N)CC2)c2ncc(N3CCN(C)CC3)cc2n1 [BAY-693]
inactive: residual activity [1] 100% | residual activity [2] 100% | residual activity [3] 100% | residual activity [4] 91% | residual activity [5] 79% | residual activity [6] 93% | residual activity [7] 82% | residual activity [8] 97% | residual activity [9] 100% | residual activity [10] 79% | residual activity [11] 93% | residual activity [12] 100% | residual activity [13] 100% | inhibition [14] 17.9%

CN1CCN(c2cnc3c(C4CCN(C(=O)c5ccc(OC(F)(F)F)cc5N)CC4)ncnc3c2)CC1 [BAY-885]
inactive: residual activity [1] 100% | residual activity [2] 100% | residual activity [3] 100% | residual activity [4] 77% | residual activity [5] 90% | residual activity [6] 85% | residual activity [7] 90% | residual activity [8] 85% | residual activity [9] 100% | residual activity [10] 95% | residual activity [11] 100% | residual activity [12] 100% | residual activity [13] 92% | inhibition [14] 12.6%
